Test results from ChEMBL document CHEMBL1201862, “PubChem BioAssay data set” (2004).
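96-well plates; 48 h exposure; 5 concentrations. Endpoints by linear interpolation between flanking doses. Not reached: highest tested concentration assigned. GI50: concentration for 50% inhibition of growth.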 The source made the active and inactive calls. No stated cut-off is given here; in the data, active = GI50 up to about 1.1 µM and inactive = higher.

Legend:
Experiment in all cases: inhibition of tumour cell growth, NCI panel, 48 h
KM12 = system: KM12
LOX IMVI = system: LOX IMVI
UACC-62 = system: UACC-62
SW-620 = system: SW-620
UO-31 = system: UO-31
SF-268 = system: SF-268
NCI-H460 = system: NCI-H460
A549 = system: A549
OVCAR-8 = system: OVCAR-8
M14 = system: M14
SF-295 = system: SF-295
SK-MEL-28 = system: SK-MEL-28
HOP-92 = system: HOP-92
HCT-116 = system: HCT-116
OVCAR-5 = system: OVCAR-5

Measured: GI50

NC(=O)c1cccc([N+](=O)[O-])c1
inactive: KM12 > 100 µM | LOX IMVI > 100 µM | UACC-62 > 100 µM | SW-620 > 100 µM | UO-31 > 100 µM | SF-268 > 100 µM | NCI-H460 > 100 µM | A549 > 100 µM | OVCAR-8 > 100 µM | M14 > 100 µM | SF-295 > 100 µM | SK-MEL-28 > 100 µM

O=C1OC(c2ccc(Cl)c3ccccc23)c2ccccc21 (stereo not drawn)
inactive: KM12 > 100 µM | HOP-92 > 100 µM | HCT-116 91.2 µM | UACC-62 63.2 µM | UO-31 > 100 µM | SF-268 > 100 µM | NCI-H460 > 100 µM | A549 76.7 µM | OVCAR-8 > 100 µM | M14 > 100 µM | OVCAR-5 > 100 µM | SF-295 70.5 µM | SK-MEL-28 > 100 µM

CCOc1ccc(/C=C(\Cl)c2ccc(OC)c(OC)c2)cc1
inactive: HOP-92 55.3 µM | HCT-116 32.6 µM | UACC-62 20.5 µM | SW-620 50.6 µM | UO-31 28.7 µM | SF-268 87.3 µM | A549 35.2 µM | OVCAR-8 63.8 µM | M14 25.3 µM | SF-295 80.9 µM | SK-MEL-28 38.5 µM

N#CC(C(=O)/C(=N\NC(N)=O)C(C#N)c1ccccc1)c1ccccc1 (stereo not drawn)
inactive: KM12 > 100 µM | HOP-92 > 100 µM | HCT-116 > 100 µM | UACC-62 > 100 µM | SW-620 > 100 µM | UO-31 > 100 µM | SF-268 > 100 µM | NCI-H460 > 100 µM | A549 > 100 µM | OVCAR-8 > 100 µM | M14 > 100 µM | OVCAR-5 > 100 µM | SF-295 > 100 µM | SK-MEL-28 > 100 µM

N#CCCN(CCC#N)c1ccc(/C=C(/NC(=O)c2cc([N+](=O)[O-])ccc2Cl)C(=O)N=[N+]=[N-])cc1
inactive: KM12 > 100 µM | HCT-116 > 100 µM | LOX IMVI > 100 µM | UACC-62 > 100 µM | SW-620 > 100 µM | UO-31 > 100 µM | SF-268 > 100 µM | NCI-H460 > 100 µM | A549 > 100 µM | OVCAR-8 > 100 µM | M14 > 100 µM | OVCAR-5 > 100 µM | SF-295 > 100 µM | SK-MEL-28 > 100 µM

N#CC(C(=O)/C(=N/NC(=O)c1ccccc1O)C(C#N)c1ccc(Cl)cc1)c1ccc(Cl)cc1 (stereo not drawn)
inactive: KM12 15.8 µM | HCT-116 17.4 µM | LOX IMVI 14.3 µM | SW-620 15.2 µM | UO-31 17.1 µM | SF-268 16.6 µM | NCI-H460 15.7 µM | A549 24.6 µM | OVCAR-8 13.4 µM | M14 19.2 µM | OVCAR-5 20 µM | SF-295 16.4 µM | SK-MEL-28 14.4 µM

CC(C)(C)C1CCC(CI)(N=[N+]=[N-])CC1 (stereo not drawn)
inactive: KM12 > 100 µM | HOP-92 > 100 µM | HCT-116 > 100 µM | UACC-62 > 100 µM | SW-620 > 100 µM | UO-31 > 100 µM | SF-268 > 100 µM | NCI-H460 > 100 µM | A549 > 100 µM | OVCAR-8 > 100 µM | M14 > 100 µM | OVCAR-5 > 100 µM | SF-295 > 100 µM

C/C1=N\[N-]C(=O)c2ccccc2C(=O)N/N=C(\C)c2cccc1n2.O=[N+]([O-])[O-].[Zn+2]
inactive: KM12 > 100 µM | HCT-116 > 100 µM | UACC-62 > 100 µM | SW-620 > 100 µM | UO-31 > 100 µM | SF-268 > 100 µM | NCI-H460 > 100 µM | A549 > 100 µM | OVCAR-8 > 100 µM | M14 > 100 µM | OVCAR-5 > 100 µM | SF-295 > 100 µM | SK-MEL-28 > 100 µM
